These results are taken from ChEMBL document CHEMBL1145655, “Plant anticancer agents XXV. Constituents of Soulamea soulameoides” (1983).

≈ marks a conversion by molar mass, not a printed value.

Common to all, as to assay type: functional
Assay [1] has as its system P388. Nature of the assay: In vivo antitumor activity against mouse P388 cells at 4.92 mg/kg relative to control.
The test system of assay [2] is P388. Nature of the assay: In vivo antitumor activity against mouse P388 cells at 9.83 mg/kg relative to control.
For assay [3], the system named is P388. Kind of assay: Cytotoxicity against mouse P388 cells. The settings on record: read-out: ED50 (the source's name).
The next assay concerns KB. Kind of assay: Cytotoxicity against human KB cells. The following applies: read-out: ED50 (the source's name).
For assay [4], the system named is P388. Nature of the assay: In vivo antitumor activity against mouse P388 cells at 19.6 mg/kg relative to control.
Assay [5] concerns P388. Nature of the assay: In vivo antitumor activity against mouse P388 cells at 2.46 mg/kg relative to control.
In assay [6] the test system is P388. Kind of assay: In vivo antitumor activity against mouse P388 cells at 5 mg/kg relative to control.
Assay [7] relates to P388. Kind of assay: In vivo antitumor activity against mouse P388 cells at 1.25 mg/kg relative to control.
In assay [8] the test system is P388. Kind of assay: In vivo antitumor activity against mouse P388 cells at 2.5 mg/kg relative to control.
Assay [9] relates to P388. Kind of assay: In vivo antitumor activity against mouse P388 cells at 0.5 mg/kg relative to control.
Assay [10] has as its system P388. Nature of the assay: In vivo antitumor activity against mouse P388 cells at 0.25 mg/kg relative to control.
Assay [11] has as its system P388. Nature of the assay: In vivo antitumor activity against mouse P388 cells at 1 mg/kg relative to control.
In assay [12] the test system is P388. Nature of the assay: In vivo antitumor activity against mouse P388 cells at 0.9 mg/kg relative to control.
Assay [13] concerns P388. Kind of assay: In vivo antitumor activity against mouse P388 cells at 1.9 mg/kg relative to control.
For assay [14], the system named is P388. Nature of the assay: In vivo antitumor activity against mouse P388 cells at 7.5 mg/kg relative to control.
Assay [15] has as its system P388. Nature of the assay: In vivo antitumor activity against mouse P388 cells at 3.8 mg/kg relative to control.

Broadly, the T/C is the result in the treated group divided by that in the control group, in per cent. With `COC1=C(C)[C@@H]2CC(=O)O[C@@H]3C[C@H]4C(C)=C[C@H](O)C(=O)[C@]4(C)[C@@H](C1=O)[C@@]32C` [PICRASIN B], the T/C in the assay on P388 [1] was found to be 102%; in the assay with P388 [2] it was 107%; in the assay on P388 [4] it was 107%; in the assay on P388 [5], 107%. The EC50 with P388 [3] and in the assay with KB was > 100 µg/mL each time.
On to `COc1cc([C@H]2Oc3c(OC)cc4ccc(=O)oc4c3O[C@@H]2CO)ccc1O` [CLEOMISCOSIN A], for which the EC50 was 2.8 µg/mL (≈ 7.25 µM) with P388 [3] and 4.9 µg/mL (≈ 12.7 µM) in the assay with KB.
With `O=c1ccc2nccc3c4c(O)cccc4n1c23`, the T/C with P388 [6] was 102%; in the assay on P388 [7], 108%; with P388 [8] it was 107%. Besides, the EC50 in the assay on P388 [3] is 2.3 µg/mL (≈ 9.74 µM); in the assay on KB it was 2.1 µg/mL (≈ 8.89 µM).
In the assay with P388 [6], `CC1=CC(=O)[C@@H](O)[C@]2(C)[C@H]3[C@]4(O)OC[C@]35[C@H]([C@@H](C)[C@H]4O)[C@@H](O)C(=O)O[C@@H]5C[C@@H]12` [GLAUCARUBOLONE] displayed a T/C of 132%. The values for the EC50 in the assay with P388 [3] and in the assay with KB were 0.01 µg/mL (≈ 0.0254 µM) and 0.11 µg/mL (≈ 0.279 µM), respectively.
Turning to `COC(=O)[C@]12OC[C@]34[C@H]([C@@H](O)[C@@H]1O)[C@@]1(C)[C@H](O)C(=O)C=C(C)[C@@H]1C[C@H]3OC(=O)[C@H](OC(=O)CC(C)C)[C@@H]24` [ISOBRUCEIN A], the EC50 in the assay with P388 [3] is 0.001 µg/mL (≈ 0.00191 µM); with KB it was 0.003 µg/mL (≈ 0.00574 µM). In addition, the T/C with P388 [9] came out at 145%; in the assay with P388 [10] it was 138%; in the assay on P388 [11] it was 155%.
For `CC(=O)O[C@H]1C(=O)O[C@@H]2C[C@H]3C(C)=CC(=O)[C@@H](O)[C@]3(C)[C@H]3[C@]4(O)OC[C@]32[C@@H]1[C@@H](C)[C@H]4O` [HOLACANTHONE], the T/C in the assay with P388 [12] came out at 127%; with P388 [13], 134%; in the assay with P388 [14], 136%; with P388 [15], 154%.
